Format in all cases: cell-based, mouse
Assay [1] concerns differentiated N1E-115 cells expressing RFP-tagged EB3. Description: Live imaging of EB3 comet-like structures (MT dynamics). The settings on record: 10^−12M, 4 hrs, vs. non-treated control; no significant differences between NAP and SKIP. An excerpt:
Plasmid construction—Protein expressing plasmids were constructed as previously described based on pEGFP-C1 backbone and express full-length ADNP or the following truncated ADNP proteins: p.Glu830synfs*83, p.Lys408Valfs*31, p.Ser404* (as before). Inserts of cDNA carrying unique mutations were obtained from mRNA extracted from patient-derived lymphoblastoid cell lines and cDNA with full-length human ADNP was obtained from a control lymphoblastoid cell line with no mutation. Protein expressions were verified by fluorescent imaging and immunoblotting analysis as before.
(§1) Cell culture—Mouse neuroblastoma NIE-115 cells were maintained in Dulbecco's modified Eagle's medium, 10% fetal bovine serum, 2 mM glutamine and 100 U ml-1 penicillin, 100 mg ml-1 streptomycin (Biological Industries, Beit Haemek, Israel). The cells were incubated in 9 5% air/5% CO2 in a humidified incubator at 37° C.
(§2) Cell differentiation and co-transfection of overexpression plasmids—Cultured NIE-115 cells were plated on 35 mm dishes (81156, 60 p-Dish, Ibidi, Martinsried, Germany) at a concentration of 1.25×10^4 cells per dish and then were differentiated with reduced fetal bovine serum (2%) and DMSO (1.25%) containing medium for 5 days before transfection. 48 hrs before experiments N1E-115 cells were co-transfected with 1 μg EB3-RFP or mCherry-Tau (3R) plasmid with or without 2 μg of plasmids, coding to GFP conjugated to full-length human ADNP, or ADNP carried mutations. 1:3 ratios between total amount of transfected DNA and transfection reagent were used according to manufacture guidance (Lipofectamine2000, Thermo Fisher Scientific, Waltham, MA, USA) in all subsequent experiments.
Live Imaging—48 hrs after transfection, differentiated NIE-115 cells (expressing EB3-RFP with or without GFP-conjugated to full-length ADNP or mutated ADNP) were incubated at 37° C. with a 5% CO2/95% air mixture in a thermostatic chamber placed on the stage of a Leica TCS SP5 confocal microscope (objective 100× (PL Apo) oil immersion, NA 1.4). Time-lapse images were automatically captured 3 sec during 1 min, using the Leica LAS AF software. After imaging all samples were also treated with NAP (SEQ ID NO: 2) or SKIP (SEQ ID NO: 21) in final concentrations of 10^−12M, and after 4 hrs time-lapse imaging was done again under the same conditions. Data was collected and analyzed by Imaris software.
To evaluate the effect of ADNP truncated proteins on MT dynamics time-lapse imaging of EB3 comet-like structures formed by RFP-tagged EB3 proteins that bind to MT plus-ends was performed. Two parameters of EB3 activity were used to assess MT dynamics—track length and track speed of EB3 comets, which reflect the length of freshly growing MTs and the speed of MT assembly, respectively. Furthermore, the present inventors aimed to determine whether NAP ([…] for 4 hrs) could prevent the deleterious effect of ADNP mutations.

Assay [2] deals with Tau-MT interaction in differentiated N1E-115 cells. Description: Fluorescence recovery after photobleaching (FRAP) of mCherry-Tau. The settings on record: zinc 400 μM, 1 h; peptide 10^−12M. As to the method: as §1, §2
Fluorescence recovery after photobleaching (FRAP)—Differentiated NIE-115 cells were transfected with mCherry-Tau with or without GFP-conjugated to full-length ADNP or mutated ADNP, and imaged 48 hrs after transfection. An ROI for photobleaching was drowned in the proximal cell branches. mCherry-Tau was bleached with a […], and fluorescence recovery was collected within wavelengths of 610-650 nm. 80 images were taken every 0.74 sec immediately after bleaching. After FRAP imaging all samples were also treated with NAP in final concentrations of 10^−12M, and after 4 hrs time-lapse imaging was done again under the same conditions. FRAP imaging for assessment difference between NAP and SKIP (SEQ ID NO: 21) activity was performed after an hour of ZnCl2 treatment (400 μM final concentration; Sigma, Rehovot, Israel) with or without NAP/SKIP (10^−12M final concentration). Fluorescence signals were quantified with Fiji, obtained data were normalized with easyFRAP [82, 83] and FRAP recovery curves were fitted by a one-phase exponential association function by GraphPad Prism6 (GraphPad Software, Inc., La Jolla, CA, USA) while samples with R^2<0.9 were excluded.
Next, the effect of full-length/truncated ADNP forms with or without NAP treatment on Tau-MT interaction was examined by fluorescence recovery after photobleaching (FRAP) (FIGS. 8A-C). FRAP was performed with mCherry-tagged Tau protein (FIG. 8A). […] Therefore, the immobile mCherry-Tau fraction reflects the rate of Tau association with MTs.

The test system of assay [3] is Tau, tubulin. Kind of assay: Polymerized vs. soluble tubulin assay. Particulars: zinc 400 μM, 4 h, peptide 10^−12M. As to the method: Polymerized vs. soluble tubulin assay—To quantify tubulin polymerization and Tau-MT association, a simple assay was performed as previously described. The cells grown to confluence in six-well plates were washed with MT buffer (80 mM PIPES pH 6.8, 1 mM MgCl^2, 2 mM EGTA, 5% Glycerol) and lysed at room temperature for 5 min through centrifugation (300 g), with 150 μl of MT buffer with 0.5% Triton X-100 to extract soluble (cytosolic) tubulin (S). The pelleted cells were rinsed once again with an equal volume of modified RIPA lysis buffer (50 mM Tris-HCL pH 7.4, 150 mM NaCl, 2 mM EGTA, 1% Triton X-100, 0. 1% SDS, 0.1% sodium Deoxycholate) to collect the polymerized (cytoskeletal) tubulin (P). The cytosolic and cytoskeletal fractions were each mixed with sample buffer and heated at 95° C. for 5 min. An equal volume of each fraction was analyzed by immunoblotting with Tau, tubulin and actin antibodies, and the results following ECL development were quantified by densitometry (GelQuant.NET software provided by biochemlabsolutions(dot)com).
It is known that in the presence of extracellular zinc NAP protects MT against degradation by promoting Tau binding to the MT shaft. Polymerized vs. soluble tubulin assay was effected to compare protective activities of NAP and SKIP against MT degradation and Tau-MT dissociation (FIGS. 11F-G). After treatments with zinc (400 μM, 4 h) with and without NAP or SKIP (10^−12M, 4 h) the cellular-tubulin pool was separated into polymerized and soluble tubulin fractions. The amount of Tau, tubulin, and actin was identified by immunoblotting (FIG. 11F), followed by densitometric quantification (FIG. 11G).

As to SKIP, the “EB3 track length and speed” value in assay [1] is “increased EB3 track length and speed”. In assay [2], the “Tau immobile fraction (Tau-MT interaction) in the presence of zinc” value is given as “prevented zinc adverse effect”. In assay [3], the “protection against Tau dissociation from MTs (soluble Tau ratio)” value is given as “only NAP exhibited protection against Tau dissociation from MTs” and the “protection of polymerized tubulin against zinc” value is given as “protected against zinc-induced decay”.

Values taken from patent US20250032581A1, “COMPOSITIONS AND ARTICLES COMPRISING AN ADNF POLYPEPTIDE” (RAMOT AT TEL-AVIV UNIVERSITY LTD., priority 2021, published 2025).
